Tests used:
human SGLT2 = biological target: T1, human SGLT2 (Homo sapiens, UniProt P31639); test: Assay for inhibitory effects on human SGLT2 activity (uptake of methyl-α-D-glucopyranoside); type: cell-based; conditions: inhibition of uptake of 14C-labeled methyl-α-D-glucopyranoside (1 mM) in CS2-5E cells (CHO-K1) stably expressing human SGLT2, 37° C., 1 hour
T1 construct: expressed in transfected cells
T1 sequence (P31639 1-672): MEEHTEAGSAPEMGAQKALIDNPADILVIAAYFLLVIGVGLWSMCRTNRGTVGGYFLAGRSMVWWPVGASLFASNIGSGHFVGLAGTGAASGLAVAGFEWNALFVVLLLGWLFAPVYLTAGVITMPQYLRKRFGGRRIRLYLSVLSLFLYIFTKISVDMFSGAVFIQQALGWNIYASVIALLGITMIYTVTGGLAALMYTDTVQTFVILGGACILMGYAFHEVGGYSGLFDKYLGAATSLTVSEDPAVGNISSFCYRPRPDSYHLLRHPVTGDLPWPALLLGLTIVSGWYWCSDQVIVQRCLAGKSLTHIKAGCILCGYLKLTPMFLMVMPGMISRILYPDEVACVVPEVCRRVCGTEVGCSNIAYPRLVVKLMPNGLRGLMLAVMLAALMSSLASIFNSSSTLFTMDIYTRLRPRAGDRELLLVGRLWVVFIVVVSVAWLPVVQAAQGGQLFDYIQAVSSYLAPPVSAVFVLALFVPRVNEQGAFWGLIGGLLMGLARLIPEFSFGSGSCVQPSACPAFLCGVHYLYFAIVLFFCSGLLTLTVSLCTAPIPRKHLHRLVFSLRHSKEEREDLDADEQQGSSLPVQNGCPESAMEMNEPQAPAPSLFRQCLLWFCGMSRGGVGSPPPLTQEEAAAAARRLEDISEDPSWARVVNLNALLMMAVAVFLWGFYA
Procedure: Assay for Inhibitory Effects on Human SGLT2 Activity
1) Cloning and Construction of the Vector Expressing Human SGLT2
(§1) The cDNA library was prepared for PCR amplification by reverse transcription from total RNA deprived from human kidney (Ori gene) using oligo-dT as a primer. Using this cDNA library as a template, the DNA fragment coding 2 to 2039 bp of human SGLT2 (ACCESSION: M95549, M95299), which was reported by R. G. Wells et al., was amplified by PCR method and inserted into the multi-cloning site of pcDNA3.1(−) (Invitrogen). The DNA sequence inserted was perfectly matched to the previously reported sequence.
2) Establishment of Cell Line Stably Expressing Human SGLT2
(§2) The expression vector of human SGLT2 was digested by Sca I into a linear DNA. The linear DNA was transfected into CHO-K1 cells by means of lipofection (Effectene Transfection Reagent: QIAGEN). Neomycin resistant cell lines were selected by culture in the medium containing G418 (1 mg/mL, LIFE TECHNOLOGIES), and then the activity against the uptake of methyl-α-D-glucopyranoside was measured by the method described below. […] CS2-5E cells were cultured in the presence of G418 at 200 μg/mL.
3) Measurement of the Inhibitory Activity Against the Uptake of Methyl-α-D-glucopyranoside (α-MG)
CS2-5E cells were seeded into a 96-well culture plate at a density of 3×10^4 cells/well and cultured for 2 days, and were used in the uptake assay. A mixture of non-labeled (Sigma) and ^14C-labeled α-MG (Amersham Pharmacia Biotech) was added to the uptake buffer (pH 7.4; containing 140 mM sodium chloride, 2 mM potassium chloride, 1 mM calcium chloride, 1 mM magnesium chloride, 10 mM 2-[4-(2-hydroxyethyl)-1-piperazinyl]ethane sulfonic acid and 5 mM tris(hydroxymethyl)aminomethane) at the final concentration of 1 mM. […] Radioactivity was measured by means of micro-scintillation counter TopCount (Packard). One hundred % was set to the difference between the uptake in the control group and the basal uptake, and the uptake of methyl α-D-glucopyranoside at each drug concentration were calculated. […]

human SGLT1 = biological target: T2, human SGLT1 (Homo sapiens, UniProt P13866); test: Assay for inhibitory effects on human SGLT1 activity (uptake of methyl-α-D-glucopyranoside); type: cell-based; conditions: inhibition of uptake of 14C-labeled methyl-α-D-glucopyranoside (1 mM) in CS1-5-11D cells stably expressing human SGLT1, 37° C., 1 hour
T2 construct: expressed in transfected cells
T2 sequence (P13866 1-664): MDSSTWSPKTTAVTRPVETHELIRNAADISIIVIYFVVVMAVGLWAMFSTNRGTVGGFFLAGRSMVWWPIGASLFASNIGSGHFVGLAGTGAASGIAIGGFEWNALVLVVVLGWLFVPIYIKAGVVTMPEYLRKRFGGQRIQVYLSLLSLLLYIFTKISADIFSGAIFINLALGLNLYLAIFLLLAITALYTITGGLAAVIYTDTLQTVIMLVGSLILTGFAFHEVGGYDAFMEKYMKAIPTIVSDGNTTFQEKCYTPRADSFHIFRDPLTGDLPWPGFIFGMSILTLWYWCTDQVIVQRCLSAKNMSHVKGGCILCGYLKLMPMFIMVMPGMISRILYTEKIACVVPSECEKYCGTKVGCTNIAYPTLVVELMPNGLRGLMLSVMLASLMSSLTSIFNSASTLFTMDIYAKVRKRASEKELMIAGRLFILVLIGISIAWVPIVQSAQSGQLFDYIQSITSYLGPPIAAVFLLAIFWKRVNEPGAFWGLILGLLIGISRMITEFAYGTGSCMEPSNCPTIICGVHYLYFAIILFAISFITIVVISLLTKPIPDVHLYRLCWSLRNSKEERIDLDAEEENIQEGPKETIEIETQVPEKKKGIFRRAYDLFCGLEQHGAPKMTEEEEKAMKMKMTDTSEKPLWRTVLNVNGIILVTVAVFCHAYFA
Procedure: Assay for Inhibitory Effects on Human SGLT1 Activity
1) Cloning and Construction of the Vector Expressing Human SGLT1
as §1, with “small intestine” for “kidney”, “1” for “2”, “2005” for “2039”, “SGLT1” for “SGLT2”, “M24847),” for “M95549, M95299),”, “Hediger” for “R. G. Wells”
2) Establishment of Cell Line Stably Expressing Human SGLT1
as §2, with “SGLT1” for “SGLT2”, “[…]” for “CHO-K1”, “methyl-αD-glucopyranoside” for “methyl-α-D-glucopyranoside”, “CS1-5-11D” for “CS2-5E”, “μg/mL. […]” for “μg/mL.”
CS1-5-11D cells were seeded into a 96-well culture plate at a density of 3×10^4 cells/well and cultured for 2 days, and were used in the uptake assay. […] Radioactivity was measured by means of micro-scintillation counter TopCount (Packard). […]

Row | Compound | IC50 (human SGLT2) [nM] | IC50 (human SGLT1) [nM]
1 | OC[C@H]1O[C@@H](Oc2cccc3occ(CCc4ccccc4)c23)[C@H](O)[C@@H](O)[C@@H]1O [Example 2, 4-(β-D-Glucopyranosyloxy)-3-(2-phenylethyl)benzofuran] | 6 | 
2 | Cc1ccccc1CCc1coc2cccc(O[C@@H]3O[C@H](CO)[C@@H](O)[C@H](O)[C@H]3O)c12 [Example 3, 4-(β-D-Glucopyranosyloxy)-3-[2-(2-methylphenyl)ethyl]-benzofuran] | 41 | 

Second part, the compound after the results:

Row | IC50 (human SGLT2) [nM] | IC50 (human SGLT1) [nM] | Compound
3 |  | 15 | OC[C@H]1O[C@@H](Oc2cc(O)cc3occ(CCc4ccccc4)c23)[C@H](O)[C@@H](O)[C@@H]1O [Example 7, 4-(β-D-Glucopyranosyloxy)-6-hydroxy-3-(2-phenylethyl)benzofuran]
4 |  | 25 | OC[C@H]1O[C@@H](Oc2cccc3occ(CCc4ccc(OCCCNC(CO)(CO)CO)cc4)c23)[C@H](O)[C@@H](O)[C@@H]1O [Example 24, 4-(β-D-Glucopyranosyloxy)-3-[2-(4-{3-[2-hydroxy-1,1-bis(hydroxymethyl)ethylamino]propoxy}phenyl)ethyl]benzofuran]
5 | 12 |  | OC[C@H]1O[C@@H](Oc2cccc3occ(CCc4ccncc4)c23)[C@H](O)[C@@H](O)[C@@H]1O [Example 43, 4-(β-D-Glucopyranosyloxy)-3-[2-(4-pyridyl)ethyl]benzofuran]

Source: US7566699B2, “Fused heterocyclic derivative, medicinal composition containing the same, and medicinal use thereof” (Kissei Pharmaceutical Co., Ltd., priority 2003, dated 2009)
